{"source": "paper PMC9227231", "about": "“TP-CSO: A Triptolide Prodrug for Pancreatic Cancer Treatment” (Molecules, 2022)", "key": {"[1]": {"experiment": "Pharmacokinetics after gavage administration to rats (plasma level of free TP by LC-MS)", "parameters": "species or system SD rats", "settings": "Sprague-Dawley, rat, in vivo, po, 0.4 mg/kg", "description": "To evaluate the in vivo pharmacokinetics of TP-CSO conjugate, the SD rats (250–300 g, Sprague-Dawley rat) fasted 12 h in advance and were randomized into two groups (n = 5) and respectively treated with TP (0.4 mg/kg) and TP-CSO (0.4 mg/kg, TP equivalent). The blood samples (500 µL) were collected through the ocular chorionic vein at 5, 15, 30, 60, 120, 180, 240, 360, 480 and 720 min after intragastric administration. Subsequently, the samples were immediately centrifuged at 3500 rpm for 15 min. An upper plasma sample was collected and kept at −80 °C.\nSample processing: to the plasma sample,10 µL of ferulic acid (2.5 ng/mL) was added as internal standard. The sample (100 µL) was placed in a 1.5 mL Eppendorf tube, to which 800 µL of ethyl acetate was added and vortexed for 3 min, and this was centrifuged at 12,000 rpm for 15 min. The upper solution was taken and blow dried with nitrogen at room temperature. The dried residue was dissolved in 100 µL of methanol-water (60:40, v/v) solution, vortexed for 3 min, subsequently centrifuged at 12,000 rpm for 15 min at 4 °C and the upper solution was collected into a 2 mL vial.\n10 μL of sample was injected into a Watets C-18 column (2.1 mm × 50 mm, 1.8 µm) on a Sciex X500R QTOF Mass Spectrometer (UPLC-MS; Framingham, MA, USA). The column was eluted with methanol (A)/water (B) solution at a flow rate of 0.3 mL/min and a column temperature of 35 °C (0–6 min, A: 40%–90%; 6–8.1 min, A: 90%; 8.1–10 min, A: 40%). The operating conditions of UPLC-MS are as follows: electrospray ionization source (ESI), negative ionization mode; Ion spray voltage (ISV), 3500 V; Drying temperature, 325 °C; Flow rate of desolvent gas, 8.0 L/min; Atomization temperature, 350 °C. The pyrolysis energy and impact energy of TP were 120 V and 10 V, respectively, and those of ferulic acid were 90 V and 10 V, respectively. A multiple reaction monitoring mode (MRM) was used to monitor the transformation of TP from m/z [M-H] 359.1→241.1 and ferulic acid m/z [M-H] 193.1→134.1 to productions."}, "Panco2 tumor": {"system": "Panco2 tumor", "experiment": "In vivo antitumor study in Panco2 tumor-bearing mice", "description": "The antitumor activity of the TP-CSO conjugate was evaluated on Panco2 tumor-bearing mice. First, C57 mice (20–25 g) were implanted subcutaneously with 2 × 10^6 Panco2 cells. When the tumor grew up to about 100 mm^3, the mice were orally administrated with 0.4 mg/kg TP and TP-CSO (0.2, 0.4 and 0.6 mg TP equivalent/kg) once every two days, respectively. The body weight and fatality rate were recorded. Mice in control groups were orally administrated with saline solution. The tumor volume was measured with calipers and calculated by the (1/2) (a × b²) formula (a is long diameter, b is short diameter). After 14 days of intragastric administration, the mice were sacrificed, and livers, kidney, and tumors were harvested."}, "[2]": {"experiment": "In vivo toxicity in healthy C57 mice", "description": "The 30 normal C57 mice (20–25 g) were randomly divided into a normal saline group, TP (0.4 mg/kg) group and TP-CSO group (equivalent TP of 0.2, 0.4 and 0.6 mg/kg), respectively. The drugs were administered by a gavage once every two days for seven times. The body weight and fatality rate were recorded daily. On the 14th day, blood was collected from the eyes, and the organs were harvested after the mice were euthanized. A Beckman CX5 automated analyzer detected renal function indexes, liver function indexes (serum alanine aminotransferase (ALT), aspartic aminotransferase (AST)), and (blood urea nitrogen (BUN) creatinine (CRE))."}, "[3]": {"settings": "healthy C57 mice, day 14, 0.4 mg/kg TP equivalent (medium dose)"}}, "data": [{"compound": "CC(C)[C@]12O[C@H]1[C@@H]1O[C@]13[C@]1(O[C@H]1C[C@H]1C4=C(CC[C@@]13C)C(=O)OC4)[C@@H]2O", "note": "[TP, Triptolide]", "values": [{"measurement": "AUC(0-inf)", "setting": "[1]", "result": 0.061, "unit": "ng·h/mL"}, {"measurement": "Cmax", "setting": "[1]", "result": 0.021, "unit": "ng/mL"}, {"measurement": "Tmax", "setting": "[1]", "result": 15, "unit": "min"}, {"measurement": "half-life", "setting": "[1]", "result": 42.6, "unit": "min"}, {"measurement": "tumor-inhibition rate (TIR)", "setting": "Panco2 tumor; Panco2-bearing mice, oral once every two days, end of study, 0.4 mg TP equivalent/kg (medium dose)", "result": 43.39, "unit": "%"}, {"measurement": "body weight vs control group", "setting": "Panco2 tumor; mouse, in vivo, po, 0.4 mg/kg", "result": "obvious decrease in body weight"}, {"measurement": "BUN and CRE levels", "setting": "[2]; [3]", "result": "significantly lower than in the control group"}, {"measurement": "serum ALT and AST levels", "setting": "[2]; [3]", "result": "obviously higher than those in other groups"}, {"measurement": "body weight vs control group", "setting": "[2]; healthy C57 mice, gavage once every two days x7, 0.4 mg/kg TP equivalent (medium dose)", "result": "obvious body weight loss but without lethality"}, {"measurement": "minimum dose causing the death of mice", "setting": "[2]; mice, preliminary experiments", "result": "about 0.6 mg/kg"}]}]}
